From patent US12139488B2, “Pyrido[3,2-d]pyrimidine compounds uses thereof for treating a proliferative disease” (Universite de Montreal, priority 2021, dated 2024) come the findings set out here.

Structures are written as SMILES. pEC50, pIC50: −log10 of the molar value. Like-named read-outs stand apart in the source and are kept apart here. A value given as a limit tells only on which side of the number the result lay.

Common to all, as to type: cell-based, human
One assay has as its system HT29 cells (BRAF V600E). The assay is described as follows: Proliferation inhibition (CellTiter-Glo), HT29. The note with it: HT-29, 3 days, read-out: HT-29 Prolif. EC50. On the procedure: (§1) All cancer cell lines (A375, A101D, A2058, RKO, HT29 SK-MEL 30, IPC298, HepG2, HCT-116, Lovo, SWV620, SW480, NCI-H358, NCI-H2122, Calu-6, NCIH2087, NCIH1755, NCIH1666 and Mewo) were obtained from ATCC and cultured in RPMI-1640 medium (Gibco) supplemented with 5% heat inactivated fetal bovine serum (FBS, Wisent) at 37° C. under 5% CO2. Cells were maintained in T175 flasks (Greiner). They were passaged by removing the culture medium, washing once in 10 mL of room temperature Phosphate Buffered Saline (PBS; Wisent) and incubating at 37° C. with 2 mL of 0.05% Trypsin (Thermo-Fisher). Trypsin was then inactivated by adding complete growth medium and the cells were then replated in a T175 culture dish at the appropriate dilution. All cell lines were routinely tested for mycoplasma contamination. Tissue type and mutational status of each cell line can be found in Table B.
(§2) CellTiter-Glo® viability analysis was conducted on cells plated in 100 μL of complete RPMI-1640 growth medium in 96-well flat-bottomed white opaque plates (Greiner or Croning) at a density indicated in Table E (for each CCL, number of cells plated per well of a 96-well plate to perform the CellTiter-Glo® cell viability assay). The cell density in cells/cm^2 would correspond to cell number divided by the area of one well of a 96-well plate (0.32 cm^2). […]
(§3) After 3 days of incubation, the growth media were removed by aspiration and 60 μL of diluted CellTiter-Glo® reagent (10 μL CellTiter-Glo® reagent+50 μL of PBS) was added to each well. […] Luminescence signals were then acquired on a Synergy Neo2 plate reader (Biotek).
(§4) The effect of each compound dilution on the proliferation of cancer cell lines was expressed in % inhibition and calculated as follows. […]
(§5) The ability of each compound to inhibit proliferation was expressed as a EC50 value obtained by plotting the effect values for each data point of a dilution series and fitting the obtained curves using a log(agonist) versus response-variable slope (four parameters) function using GraphPadPrism (V7.0) or Dotmatics Screening Ultra platform.
In general terms: In ATP-based viability assays light output follows the ATP content of the culture.

In another assay the test system is Lovo cells (KRAS-G13D). The assay is described as follows: Proliferation inhibition (CellTiter-Glo), Lovo. The note with it: 3 days, read-out: Lovo Prolif. EC50. On the procedure: as §1, §2, §3, §4, §5
The subject of assay [1] is pERK in SW480 cells (KRAS G12D). The assay can be described thus: Phospho-ERK inhibition (AlphaLISA), SW480. Particulars: for SW480 pERK % Ymin: value in parentheses. Summed up:
(§6)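 Read-out: AlphaLISA p-ERK1/2 (Thr202/Tyr204) in lysates after 1 h exposure to compound in complete RPMI-1640, 5% FBS, 0.5% DMSO. Trametinib defined 100% inhibition and vehicle 0%; IC50 values come from four-parameter curves. Negative inhibition was taken as paradoxical pERK induction.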
(In general: Bead proximity is the source of the signal in Alpha formats.)

Assay [2] relates to NCI-H2122 cells (KRAS-G12C). The assay is described as follows: Proliferation inhibition (CellTiter-Glo), NCI-H2122. The note with it: NCI-H2122, 3 days, read-out: NCI-H2122 Prolif. EC50. On the procedure: as §1, §2, §3, §4, §5
Assay [3] has as its system SK-MEL30 cells (NRAS-Q61K). The assay is described as follows: Proliferation inhibition (CellTiter-Glo), SK-MEL30. The note with it: SK-MEL30, 3 days, read-out: SK-MEL30 Prolif. EC50. On the procedure:
as §1, §2, §3, §4, §5

In assay [4] the test system is pERK in HCT-116 cells (KRAS G13D). The assay is described as follows: Phospho-ERK inhibition (AlphaLISA SureFire Ultra p-ERK 1/2), HCT116. Particulars: for HCT116 pERK % Ymin: value in parentheses. Summed up:
as §6

For orientation: pEC50 means −log10 of the EC50, conventionally taken in molar units. The pIC50 is −log10 of the IC50, conventionally taken in molar units.

With `CC1(O)CCN(c2cccc3c2ncn3-c2ccc3ncnc(Nc4c(F)ccc(NS(=O)(=O)c5cccc(Cl)c5Cl)c4F)c3n2)CC1` [Example 524], the negative-log EC50 (pEC50) in the assay with HT29 cells (BRAF V600E) was above 7.52; with Lovo cells (KRAS-G13D) it was above 7.52; in assay [2], 5.52 to 6.52; in assay [3], above 7.52. Besides, the pIC50 was 6.52 to 7.52 in assay [1] (SW480, Table D); above 6.30 in assay [1] (SW480 cells, class symbol); 6.52 to 7.52 in assay [4] (HCT116, Table D); above 6.30 in assay [4] (HCT116 cells, class symbol). For the same compound, in assay [1] (SW480, Table D), the “SW480 pERK % Ymin” value worked out at 0%. Moreover, the “HCT116 pERK % Ymin” value in assay [4] (HCT116, Table D) is −3%.

As for `Nc1cccc2c1ncn2-c1ccc2ncnc(Nc3c(F)ccc(NS(=O)(=O)c4cccc(Cl)c4Cl)c3F)c2n1` [Example 99], the pEC50 in the assay with HT29 cells (BRAF V600E) is above 7.52; in the assay with Lovo cells (KRAS-G13D) it was above 7.52; in assay [2], 5.52 to 6.52; in assay [3] it was above 7.52. The negative logarithm of the IC50 (pIC50) in assay [1] (SW480, Table D) was 6.52 to 7.52; in assay [1] (SW480 cells, class symbol before the bracket) it was above 6.30; in assay [4] (HCT116, Table D) it was 6.52 to 7.52; in assay [4] (HCT116 cells, class symbol before the bracket), above 6.30. Besides, the “SW480 pERK % Ymin” value in assay [1] (SW480, Table D) is −7%. The “SW480 pERK Ymin %” value in assay [1] (SW480 cells, Ymin in brackets) is reported as −0.3%. For the same compound, in assay [4] (HCT116, Table D), the “HCT116 pERK % Ymin” value is recorded as −0.3%. In assay [4] (HCT116 cells, Ymin in brackets), the “HCT116 pERK Ymin %” value is −5.4%. In addition, the “YMIN of pERK IC50 dose response curve (paradoxical induction of pERK signaling)” value in assay [4] (RAS-mutant HCT116 cells, FIG. 1) is recorded as above −20%.

Turning to `Cc1ccc2c(Nc3cccc(Cl)c3F)nccc2c1NC(=O)c1csc2c(N)ncnc12` [Belvarafenib, reference compound], the pEC50 with HT29 cells (BRAF V600E) (Homo sapiens, 72 h) was above 7.52; in the assay with Lovo cells (KRAS-G13D) (Homo sapiens, 72 h), above 7.52; in assay [2] (Homo sapiens, 72 h), 5.52 to 6.52; in assay [3] (Homo sapiens, SK-MEL-30, 72 h) it was above 7.52. For the same compound, the pIC50 in assay [1] (Homo sapiens, SW480, Table D) was 6.52 to 7.52; in assay [4] (Homo sapiens, HCT-116, HCT116, Table D), 6.52 to 7.52. Besides, the “SW480 pERK % Ymin” value in assay [1] (SW480, Table D) was −100%. For the same compound, the “HCT116 pERK % Ymin” value in assay [4] (HCT116, Table D) was −46%.
